Calls of active or inactive are those of the source. How the calls were made is not given here.
Target: Caspase-6 (Homo sapiens) (UniProt P55212)
Experiment: human caspase-6 inhibitors, dose response, biochemical, VEID-R110 fluorescence, cherry-pick (AID 720632)
Settings: caspase-6, VEID-R110 fluorogenic substrate; at 26 µM (top of the series)

Sequence of Caspase-6 (Homo sapiens) (P55212 24-179 limits assumed): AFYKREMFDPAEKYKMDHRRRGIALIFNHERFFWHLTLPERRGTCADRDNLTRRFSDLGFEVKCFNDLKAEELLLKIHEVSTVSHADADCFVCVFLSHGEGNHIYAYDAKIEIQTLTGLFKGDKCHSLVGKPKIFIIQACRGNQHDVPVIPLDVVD
Sequence of Caspase-6 (Homo sapiens) (P55212 194-293 limits assumed): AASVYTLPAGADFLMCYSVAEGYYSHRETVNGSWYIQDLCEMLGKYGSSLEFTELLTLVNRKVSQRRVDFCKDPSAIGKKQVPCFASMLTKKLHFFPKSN

Structure (SMILES)	activity change, negative = inhibition
Cc1cc2c(NC(=O)Nc3ccc(C(F)(F)F)cc3)cccc2nn1	inactive
CCCN1C[C@H](C)[C@@H](OC)CN(C)C(=O)c2ccc(NC(=O)CC)cc2OC[C@@H]1C	inactive
CN(c1ccc(C(=O)Nc2ccc3c(c2)n(C)c(=O)n3C)cc1)S(C)(=O)=O	inactive
Cc1ccc(S(=O)(=O)n2c(C)nc3ccccc32)cc1	inactive
Cc1cnc(NC(=O)c2ccc3c(c2)OCCO3)s1	inactive
CCOc1ccc(-c2n[nH]c(=S)n2Cc2ccccc2)cc1	inactive
COP(=O)(OC)c1ccc(NCc2cc(O)ccc2O)cc1	inactive
COc1cccc(C(=O)N2CCN(Cc3ccc(OC)cc3OC)CC2)c1	inactive
N#CC1C(=O)Nc2cccnc21 (stereo not given)	inactive
Cc1ccc([N+](=O)[O-])cc1S(=O)(=O)Nc1ccc(C(=O)N2CCN(C(=O)c3ccco3)CC2)cc1	inactive
CC(C)OCCCNC(=O)c1c(N)n(CC2CCCO2)c2nc3ccccc3nc12 (stereo not given)	inactive
OCc1ccccc1-c1nc(NCc2ccccc2)nc2ccsc12	inactive
Cc1cc(-n2nnc3ccccc32)nc2ccccc12	inactive
CC(C)CNC(=O)C1(C)CCCCCN1C(=O)c1cccnc1 (stereo not given)	inactive
COc1cc(OC)cc(C(=O)NNC(=O)CNC(=O)c2cccs2)c1	inactive

— PubChem BioAssay AID720632 (Broad Institute, 2013)
